SMILES strings stand for the structures. “Also recorded” adds a separate entry of the source.

The first assay deals with microglial cells. Description: Nitrite quantification by Griess method in LPS-activated microglial cells. Format: cell-based. The settings on record: test compound at 1 μM; 10 ng/ml LPS; medium collected after 48 h; control 0.1% DMSO; read-out: % of NO/control. The method, then:
(§1) The experiments that were carried out concern the ability of these molecules to inhibit the liberation of nitrites and Tumor Necrosis Factor-alpha (TNF-α) in the activated microglia. NO and TNF-α production are two common parameters related to inflammatory processes.
To evaluate the nitrite production, microglial cells were cultured in DMEM-F12 medium containing 2% heat-inactivated FBS in 48 well plates at a density of 20000 cells per well. Peripheral wells of the plate were discarded. After 72 h, 400 μL out of 500 μL medium was replaced by 350 μL fresh medium. The cells were treated with each molecule to be tested by adding 50 μL of a 10× solution to obtain a final concentration ranging from 0.1 μM to 1 μM. Each treatment was done in duplicates. 10 ng/ml LPS was added after 1 hour and the medium was collected after 48 h and stored at −20° C. until analysis. To quantify the NO production, nitrites were measured using Griess reactive (sulfanilamide 1%, Sigma; N-(1-Naphthyl)ethylenediamine 0.1%, Sigma; phosphoric acid 2.5%). Briefly, 100 μL of medium was placed into a 96 well plate and 100 μL of Griess reactive was added. After […] incubation at RT in the dark, the OD was measured at 550 nm.
The ability of each test compound to decrease the production of nitrite is presented as a percent decrease in OD with respect to the absorbance of the control condition i.e. 0.1% DMSO.
(In general: Nitrite, measured by Griess reagent, commonly stands in for NO production.)
For the molecule `COc1ccc(-c2oc3ccc(CCCCCCCCCCCCO)cc3c(=O)c2O)cc1OC`, the activity at 1 µM was determined as 87.7 ± 7.7%.

As for `COc1ccc(-c2oc3ccc(CCCCCCCCCCCCCO)cc3c(=O)c2O)cc1OC`, the activity at 1 µM was 89 ± 7.6%.

For `O=c1c(O)c(-c2ccc(O)c(O)c2)oc2ccc(CCCCCCCCCCCCO)cc12`, the activity at 1 µM is 84.5 ± 5.9%.

On to `O=c1c(O)c(-c2ccc(O)c(O)c2)oc2ccc(CCCCCCCCCCCCCO)cc12`, for which the activity at 1 µM came out at 86.3 ± 4.2%.

Take `COc1cc(-c2oc3ccc(CCCCCCCCCCCCCO)cc3c(=O)c2OC)ccc1O`: the activity at 1 µM was 95.3 ± 4.8%.

For `COc1ccc(-c2oc3ccc(CCCCCCCCCCCCCO)cc3c(=O)c2O)cc1O`, the activity at 1 µM came out at 103 ± 4%.

For the molecule `COc1cc(-c2oc3cc(O)c(CCCCCCCCCCCCO)cc3c(=O)c2O)ccc1O`, the activity at 1 µM was 90.3 ± 3.9%.

For `COc1cc(-c2oc3cc(O)c(CCCCCCCCCCCCCO)cc3c(=O)c2O)ccc1O`, the activity at 1 µM amounted to 98.2 ± 1%.

Turning to `COc1cc(-c2oc3cc(O)c(CCCCCCCCCCCCO)c(O)c3c(=O)c2O)ccc1O`, the activity at 1 µM came out at 99.6 ± 1.5%.

Take `COc1cc(-c2oc3cc(O)c(CCCCCCCCCCCCCO)c(O)c3c(=O)c2O)ccc1O`: the activity at 1 µM amounted to 109 ± 10.5%.

Consider `O=c1c(O)c(-c2ccc(O)c(O)c2)oc2cc(O)c(CCCCCCCCCCCCO)c(O)c12`, for which the activity at 1 µM was determined as 81.6 ± 4%.

Take `O=c1c(O)c(-c2ccc(O)c(O)c2)oc2cc(O)c(CCCCCCCCCCCCCO)c(O)c12`: the activity at 1 µM stood at 82.4 ± 6.3%.

Turning to `COc1c(CCCCCCCCCCCCO)c(O)cc2oc(-c3ccc(O)c(O)c3)c(O)c(=O)c12`, the activity at 1 µM was 112 ± 1.7%.

With `COc1c(CCCCCCCCCCCCCO)c(O)cc2oc(-c3ccc(O)c(O)c3)c(O)c(=O)c12`, the activity at 1 µM is 91.5 ± 2.6%.

As to `COc1cc(-c2oc3cc(O)c(CCCCCCCCCCCCO)c(OC)c3c(=O)c2O)ccc1O`, the activity at 1 µM was determined as 97.6 ± 6.9%.

Take `COc1cc(-c2oc3cc(O)c(CCCCCCCCCCCCCO)c(OC)c3c(=O)c2O)ccc1O`: the activity at 1 µM turned out to be 96.6 ± 4.2%.

On to `COc1cc(-c2cc(=O)c3cc(CCCCCCCCCCCCCO)ccc3o2)ccc1O`, for which the activity at 1 µM is 102 ± 3.8%.

For `COc1cc(-c2oc3cc(O)c4cc(CCCCCCCCCCCCO)oc4c3c(=O)c2O)ccc1O`, the activity at 1 µM was 112 ± 8%.

With `O=c1c(O)c(-c2ccc(O)c(O)c2)oc2cc(O)c3cc(CCCCCCCCCCCCO)oc3c12`, the activity at 1 µM was 112 ± 9.2%.

For `COc1cc(-c2oc3ccc(CCCCCCCCCCCO)cc3c(=O)c2O)ccc1O` [drawing 16], the activity at 1 µM was 72 ± 3%.

In the case of `COc1cc(-c2oc3ccc(CCCCCCCCCCCCO)cc3c(=O)c2O)ccc1O` [drawing 17], the activity at 1 µM turned out to be 61.1 ± 3.1%.

Consider `COc1cc(-c2oc3ccc(CCCCCCCCCCCCCO)cc3c(=O)c2O)ccc1O` [drawing 18, 3-hydroxy-2-(4-hydroxy-3-methoxyphenyl)-6-(13-hydroxytridecyl)-4H-chromen-4-one], for which the activity at 1 µM amounted to 59.8 ± 2.1%.

Turning to `COc1cc(-c2oc3ccc(CCCCCCCCCCCCCCO)cc3c(=O)c2O)ccc1O` [drawing 19], the activity at 1 µM was determined as 77.5 ± 3.9%.

In the case of `CCCCCCCCCCCCCc1ccc2oc(-c3ccc(O)c(OC)c3)c(O)c(=O)c2c1` [drawing 35], the activity at 1 µM was found to be 85 ± 0.9%.

In a further assay the test system is microglial cell line. Description: Real-time PCR gene expression analysis in microglial cell line with or without LPS activation. Format: cell-based. The settings on record: 1 μM, 3 hours incubation, with or without LPS 0.01 μg/ml; normalized to β-actin. The method, then:
To evaluate mRNA expression levels, total RNA was extracted using invisorb
RNA extraction kit (Invitek). The concentration was determined by reading the OD at 260 nm. Retro-transcription was performed using Im-Prom-II™ Reverse Transcription System (Promega) with 1 μg of total RNA.
The reaction mixture contained 12.5 μl 2× SYBR Green mastermix (Biorad), 1 μl cDNA, 1 μl of each primer (12.5 μM) and 9.5 μl of H2O. The real-time PCR amplification was controlled by the MyIQ5 system (Biorad). After activation of the enzyme at 94° C. for […], the amplification was done by cycling 40 times between a denaturation step at 94° C. and the annealing step at 54.5° C. Gene expression was analyzed using the provided software and normalized to beta-actin expression.
FIG. 1: Compound B inhibits microglial activation in vitro. Real-time PCR gene expression analysis in microglial cell line. RNA extraction was performed after 3 hours of incubation with compound B (1 μM), with or without LPS activation (0.01 μg/ml).
For the molecule `COc1cc(-c2oc3ccc(CCCCCCCCCCCCCO)cc3c(=O)c2O)ccc1O` [Compound B, 3-hydroxy-2-(4-hydroxy-3-methoxyphenyl)-6-(13-hydroxytridecyl)-4H-chromen-4-one], the “Expression of transcripts (iNOS, TNF-α gene expression) in treated microglial cells” value is reported as “significantly decreased”.

Another assay has as its system SH-SY5Y neuroblastoma cell line. In words: Differentiation of human neuroblastoma cell line SH-SY5Y into neurons: real-time PCR of Hash1 and Notch1. It is filed as cell-based. Particulars: 1 μM, 24 hours; vs 0.1% DMSO vehicle; β-actin internal control. The method, then: SH-SY5Y cells were cultured in 6 well plates at a density of 500000 cells per well and was maintained in DMEM with 10% FBS. After 24 h, the cells were treated with test compounds (1 μM) or 0.1% DMSO vehicle as control. RNA extraction was performed after 24 hours of incubation and gene expression was analyzed by real-time PCR.
The specific primer pairs directed against human Hash1, Notch1 and beta-actin are from the online database qprimerdepot (http://primerdepot.nci.nih.gov/).
The human homolog of Mash1, Hash1, is expressed in neuroblastoma cell lines. […] 2001, 36,132]. Therefore, we tested whether compounds of general Formula (I) and (II) could induce the differentiation of SH-SY5Y neuroblastoma cell line by modulating the gene expression of Hash1 and Notch1.
FIG. 3: Compound A and B induces neuroblastoma differentiation into a neuronal phenotype. Real-time PCR gene expression analysis in SH-SY5Y neuroblastoma cell line. RNA extraction was performed after 24 hours of incubation with compound A and B (1 μM) or with 0.1% DMSO vehicle as control.
As to `COc1cc(-c2oc3ccc(CCCCCCCCCCCCO)cc3c(=O)c2O)ccc1O` [Compound A, 3-hydroxy-2-(4-hydroxy-3-methoxyphenyl)-6-(12-hydroxydodecyl)-4H-chromen-4-one], the Hash1 transcripts entry is reported as “inhibit; also recorded: significantly decreased” and the Notch1 transcripts result is reported as “inhibit; also recorded: significantly decreased”.

`COc1cc(-c2oc3ccc(CCCCCCCCCCCCCO)cc3c(=O)c2O)ccc1O` [Compound B, 3-hydroxy-2-(4-hydroxy-3-methoxyphenyl)-6-(13-hydroxytridecyl)-4H-chromen-4-one]: the Hash1 transcripts result is given as “inhibit; also recorded: significantly decreased” and the Notch1 transcripts entry is “inhibit; also recorded: significantly decreased”.

In a further assay the test system is microglial cells. Description: TNF-α quantification by ELISA in supernatant of microglial cells. It is filed as cell-based. The settings on record: test compound at 1 μM; medium collected 48 h after treatment; control 0.1% DMSO. The method, then:
as §1
To quantify the presence of TNF-α in the supernatant of microglial cells, the medium was collected 48 h after treatment as described above. The ELISA 96 well plate was incubated overnight with the capture antibody (0.8 μg/ml, R&D). 10 μl of each sample was diluted with 90 μL of incubation buffer (PBS-BSA 1%, pH 7.2-7.4) and the plate was incubated for 2 h at RT. The plate was washed 3 times and incubated for 2 h with the detection antibody (150 ng/mL, R&D). […] After […] incubation at RT, the reaction was stopped with an equal volume of a 10% solution of sulfuric acid and the OD was measured at 450 nm.
The ability of each test compound to decrease the production of TNF-α is presented as a percent decrease in OD with respect to the absorbance of the control condition i.e. 0.1% DMSO.
With `COc1cc(-c2oc3ccc(CCCCCCCCCCCO)cc3c(=O)c2O)ccc1O` [drawing 38], the “% of TNF-α/control” value amounted to 69.2 ± 3.9%.

As to `COc1cc(-c2oc3ccc(CCCCCCCCCCCCCO)cc3c(=O)c2O)ccc1O` [drawing 40], the “% of TNF-α/control” value is reported as 77.2 ± 9.4%.

With `COc1cc(-c2oc3ccc(CCCCCCCCCCCCCCO)cc3c(=O)c2O)ccc1O` [drawing 41], the “% of TNF-α/control” value is given as 75.4 ± 17.2%.

Regarding `CCCCCCCCCCCCCc1ccc2oc(-c3ccc(O)c(OC)c3)c(O)c(=O)c2c1` [drawing 42], the “% of TNF-α/control” value was 91.2 ± 7.9%.

The test system of the next assay is NSCs derived neurospheres. In words: Differentiation of NSCs to neurons: real-time PCR of Hes5 and Mash1 in neurospheres (Notch signaling). Format: cell-based, mouse. The settings on record: 1 μM, vs 0.1% DMSO vehicle, β-actin internal control. The method, then:
The NSCs derived neurospheres culture was established from embryonic mouse cortices. Neurospheres were maintained in Neurobasal-A medium supplemented with B27 w/o retinoic acid, 2 mM Glutamine, 20 ng/ml EGF and antibiotics. The neurospheres were dissociated using a non enzymatic dissociation medium (Invitrogen) and the single cell suspension added to a flask with fresh medium. To differentiate the neurospheres into neurons, oligodendrocytes and astrocytes, 3 to 4 days old neurospheres were cultured in poly-ornithine treated 35 mm dishes. Cells were treated with test compounds (1 μM) or 0.1% DMSO vehicle as control in Neurobasal-A medium supplemented with B27 w/o retinoic acid, 2 mM Glutamine, antibiotics, 2 ng/ml EGF and 0.5% of heat inactivated FBS. RNA extraction was performed after 24 hours of incubation and gene expression was analyzed by real-time PCR.
The primer pairs for mouse Mash1, Hes5 and beta-actin were designed with the beacon designer software (premierbiosoft).
Notch signaling controls a wide variety of cell fate decisions, including the differentiation of NSCs during neurogenesis [Artavanis-Tsakonas, S. et al., Science, 1999, 284, 770]. […] Notch activation induces the expression of the downstream effectors Hes1 and Hes5, which down-regulate gene transcription of b-HLH transcription factors such as Mash1. Therefore, we tested whether compounds of general Formula (I) and (II) could modulate Notch signalling in NSCs. […] Inhibition of the Hes5 gene expression in the treated cultures was further correlated with an increase of Mash1 transcripts, a b-HLH factor involved in neuronal specification and differentiation [Ito, H. et al., J Neurosci Res. 2003, 71, 648].
FIG. 2: Compound A and B induces NSCs differentiation into neurons. Real-time PCR gene expression analysis in neurospheres. RNA extraction was performed after […] of incubation with compound A and B (1 μM) or with 0.1% DMSO vehicle as control.
With `COc1cc(-c2oc3ccc(CCCCCCCCCCCCO)cc3c(=O)c2O)ccc1O` [Compound A, 3-hydroxy-2-(4-hydroxy-3-methoxyphenyl)-6-(12-hydroxydodecyl)-4H-chromen-4-one], the Hes5 gene expression entry is given as “decrease” and the Mash1 transcripts result was “increase; also recorded: significantly increased”.

Take `COc1cc(-c2oc3ccc(CCCCCCCCCCCCCO)cc3c(=O)c2O)ccc1O` [Compound B, 3-hydroxy-2-(4-hydroxy-3-methoxyphenyl)-6-(13-hydroxytridecyl)-4H-chromen-4-one]: the Hes5 gene expression result is “decrease” and the Mash1 transcripts result was “increase; also recorded: significantly increased”.

These data come from patent publication US20110144194A1, “CHROMENONE DERIVATIVES USEFUL FOR THE TREATMENT OF NEURODEGENERATIVE DISEASES” (priority 2008, published 2011).
